Measured values taken from patent publication US20240165066A1, “LYMPH-RELEASING COMPOSITIONS OF FATTY ACIDS AND USES THEREOF FOR LYMPHATIC INCORPORATION AND SYSTEMIC DISEASE TREATMENT” (Amarin Pharmaceuticals Ireland Limited, priority 2022, published 2024).

Columns and labels:
Assay type in all cases: cell-based
[1] = test system: Human umbilical vein endothelial cells (HUVECs); assay: LC/MS proteomics of HUVECs treated with EPA or DHA and challenged with IL-6; settings: for number of proteins whose expression was significantly repressed / number of proteins whose expression was significantly stimulated: compared with IL-6 alone
Protocol: Human umbilical vein endothelial cells (HUVECs) were isolated into primary cultures from female donors by Clonetics (San Diego, California) and purchased as proliferating cells. All cell culture donors were healthy, with no pregnancy or prenatal complications. The cultured cells were incubated in 95% air/5% CO2 at 37° C. and passaged by an enzymatic (trypsin) procedure. The confluent cells (4 to 5×10^5 cells/35 mm dish) were placed with minimum essential medium containing 3 mM L-arginine and 0.1 mM BH4 [(6R)-5,6,7,8-tetrahydrobiopterin]. Before experimental use, the cells (from second or third passage) were rinsed twice with Tyrode-HEPES buffer with 1.8 mM CaCl2).
EPA and DHA were purchased from Sigma-Aldrich (St. Louis, MO) and prepared initially in redistilled ethanol. Primary and secondary stock solutions were prepared and stored under nitrogen at −20° C.
HUVECs were treated with vehicle, EPA, or DHA (10 μM) for 2 hours, and then challenged with IL-6 (12 ng/mL) for 24 h hours. After incubation, cells were pelleted and frozen at −80° C. until proteomic analysis was performed.
Relative protein expression levels among the various treatments were measured using LC/MS proteomic techniques. Following protein digest, peptides are separated over a reverse phase column and then identified based on their mass.
Cell pellets were lysed using methanol/chloroform extraction. Proteins were denatured, reduced, alkylated, and trypsin digested. Samples were then prepared for Tandem Mass Tag (TMT) 10plex labeling. A bicinchoninic acid (BCA) assay was performed on each sample to quantify the total protein in each sample, which is important to confirm equal amounts of each sample are added to the multiplex sample. Each peptide in a sample was given a unique, low molecular weight (typically 126-130 Da), and then the samples were combined.
Each multiplexed sample was then fractionated to increase the overall protein coverage using high pH reversed phase fractionation and analyzed by LC/MS using a Dionex UltiMate 3000 RSLC in tandem with a Q-Exactive/Lumos Orbitrap Mass Spectrometer. The chromatography was performed using a 2-hour gradient on a Thermo Pepmap C18 column (100 Å pore size, 3.0 μm particle size, […]) set at 50° C. Mobile phase A was water with 0.1% formic acid, and mobile phase B was acetonitrile with 0.1% formic acid.
A bioinformatic package was applied to all the mass spectrometry intensity data known as Differential Enrichment analysis of Proteomics data (DEP) to process proteomic data (FIGS. 35-37).

[2] = test system: Primary human lung microvascular endothelial cells (HMVEC-Ls, PECs); assay: LC/MS proteomics of pulmonary endothelial cells exposed to air pollution particulate matter
Protocol: Primary human lung microvascular endothelial cells (HMVEC-Ls, PECs) were purchased from Lonza (Manassas, VA). Cells were cultured in complete endothelial cell growth medium and maintained at 37° C. in a 95% air/5% CO2 humidified incubator. Cells were supplied with fresh medium every other day and propagated by an enzymatic (trypsin) procedure. Cell culture medium also contained 2% FBS to facilitate fatty acid treatment.
EPA was purchased from Sigma-Aldrich (Saint Louis, MO) and solubilized in redistilled ethanol under nitrogen atmosphere and stored at −20° C.
Urban air particulate matter and fine particulate matter were purchased from Sigma-Aldrich (SRM 1648a), catalog #: NIST1648a3110 and NIST27863110. The mean particle diameters were 5.85 and 2.8 μm, respectively.
PECs were pre-treated with EPA (40 μM) for 2 hours in 2% FBS-containing medium and then challenged with urban particulate matter (50 μg/mL) for 2 hours. After 2 hours, media was washed out and HBSS buffer was added. After incubation, cells were pelleted and frozen at −80° C. until proteomic analysis was performed. Relative protein expression levels among the various treatments were measured using LC/MS proteomic techniques (FIG. 40).
Cell pellets were lysed using methanol/chloroform extraction. Proteins were then denatured, reduced, alkylated, and trypsin digested. Samples were labeled by Tandem Mass Tag (TMT) 10plex labeling to multiplex the samples and ensure that the injection, LC, and MS conditions are identical for each sample. A bicinchoninic acid (BCA) assay was performed to quantify the total protein in each sample. Each peptide in a sample was given a unique, low molecular weight (typically 126-130 Da), and then the samples were combined.
Each multiplexed sample was then fractionated to increase the overall protein coverage using high pH reversed phase fractionation and analyzed by LC/MS using a Dionex UltiMate 3000 RSLC in tandem with a Q-Exactive/Lumos Orbitrap Mass Spectrometer.
A ComBat function was applied to all mass spectrometry intensity data to correct for batch effects. The bioinformatic package Differential Enrichment analysis of Proteomics data (DEP) was used to process proteomic data and generate the figures.

[3] = test system: pulmonary endothelial cells; assay: IL-6 provoked-inflammation cell culture, proteomics; settings: pulmonary endothelial cells provoked with IL-6
Excerpt: (§1) FIG. 34B presents results from a provoked-inflammation cell-culture study with proteomics outcomes, wherein endothelial cells from various tissues were exposed to the inflammatory cytokine IL-6 in the absence or presence of EPA. […] Also of interest are related increases in proteins involved in the related antioxidant ferritin in vascular endothelial cells. Finally fatty acid desaturase 1 (FADS1) encodes the Δ5-desaturase enzyme and fatty acid desaturase 2 (FADS2) encodes the […] enzyme.
(§2) In a series of tissue culture experiments cells were provoked with IL-6 to induce an inflammatory and cellular injury response, and EPA added to determine whether it moderated proteins involved in injury responses. […] Thus, the proteomics results not only affirm the ability of EPA to promote HO-1, but also confirm the ability of EPA to inhibit […], corroborating the aforementioned ability of EtEPA to suppress the Δ5-desaturase index, for example.

[4] = test system: vascular endothelial cells; assay: as above; settings: vascular endothelial cells provoked with IL-6
Excerpt: as §1, §2

brain endothelial cells = assay: as above; settings: brain endothelial cells provoked with IL-6
Excerpt: as §1, §2

[5] = 10 μM for 2 hours, then IL-6 (12 ng/mL) 24 h, vs IL-6 alone

Structure (SMILES): CC/C=C\C/C=C\C/C=C\C/C=C\C/C=C\C/C=C\CCC(=O)O [DHA, docosahexaenoic acid]
- GSR protein change [1, 5]: 1.2-fold increase,
- PRDX1 protein change [1, 5]: 1.1-fold increase,
- PRDX3 protein change [1, 5]: 1.1-fold increase,
- PRDX4 protein change [1, 5]: 1.5-fold increase
- PRDX5 protein change [1, 5]: 1.1-fold increase,
- PRDX6 protein change [1, 5]: 1.3-fold decrease
- TXN protein change [1, 5]: 1.2-fold increase,
- number of proteins whose expression was significantly repressed [1]: 767 proteins
- number of proteins whose expression was significantly stimulated [1]: 864 proteins

Structure (SMILES): CC/C=C\C/C=C\C/C=C\C/C=C\C/C=C\CCCC(=O)O [EPA, eicosapentaenoic acid]
- number of proteins with significantly modulated expression ([2]; EPA (40 μM) relative to fine PMs): 205 proteins
- number of proteins with significantly modulated expression ([2]; EPA (40 μM) relative to urban PMs): 347 proteins
- # of Proteins Decreased Expression by Treatment, Neutrophil Degranulation Pathway (GO: 0043312) ([2]; Fine PM vs EPA + Fine PM): 11
- # of Proteins Increased Expression by Treatment, Neutrophil Degranulation Pathway (GO: 0043312) ([2]; Fine PM vs EPA + Fine PM): 11
- # of Proteins Decreased Expression by Treatment, Neutrophil Degranulation Pathway (GO: 0043312) ([2]; Urban PM vs EPA + Urban PM): 19
- # of Proteins Increased Expression by Treatment, Neutrophil Degranulation Pathway (GO: 0043312) ([2]; Urban PM vs EPA + Urban PM): 16
- number of proteins associated with neutrophil degranulation modulated by EPA treatment ([2]; compared to fine PMs): 22 proteins
- number of proteins associated with neutrophil degranulation modulated by EPA treatment ([2]; compared to urban PMs): 35 proteins
- HO-1 protein, EPA+IL-6 vs IL-6 alone [3]: 1.9 fold
- HO-1 protein, EPA+IL-6 vs IL-6 alone [4]: 2.2 fold
- HO-1 protein, EPA+IL-6 vs IL-6 alone (brain endothelial cells): 1.5 fold
- DDAH-1 protein change [1, 5]: 1.1-fold increase,
- DDAH-2 protein change [1, 5]: 1.1-fold increase,
- GSR protein change [1, 5]: 1.1-fold increase,
- PRDX1 protein change [1, 5]: 1.1-fold increase,
- PRDX2 protein change [1, 5]: 1.1-fold increase,
- PRDX5 protein change [1, 5]: 1.1-fold increase,
- TXN protein change [1, 5]: 1.2-fold increase,
- number of proteins whose expression was significantly repressed [1]: 472 proteins
- number of proteins whose expression was significantly stimulated [1]: 544 proteins
